Series [1] concerns the target T1, LAT1 (Homo sapiens, UniProt Q01650). The conditions noted are these: cited from earlier work.
Target sequence in this assay (Q01650 whole entry, species assumed): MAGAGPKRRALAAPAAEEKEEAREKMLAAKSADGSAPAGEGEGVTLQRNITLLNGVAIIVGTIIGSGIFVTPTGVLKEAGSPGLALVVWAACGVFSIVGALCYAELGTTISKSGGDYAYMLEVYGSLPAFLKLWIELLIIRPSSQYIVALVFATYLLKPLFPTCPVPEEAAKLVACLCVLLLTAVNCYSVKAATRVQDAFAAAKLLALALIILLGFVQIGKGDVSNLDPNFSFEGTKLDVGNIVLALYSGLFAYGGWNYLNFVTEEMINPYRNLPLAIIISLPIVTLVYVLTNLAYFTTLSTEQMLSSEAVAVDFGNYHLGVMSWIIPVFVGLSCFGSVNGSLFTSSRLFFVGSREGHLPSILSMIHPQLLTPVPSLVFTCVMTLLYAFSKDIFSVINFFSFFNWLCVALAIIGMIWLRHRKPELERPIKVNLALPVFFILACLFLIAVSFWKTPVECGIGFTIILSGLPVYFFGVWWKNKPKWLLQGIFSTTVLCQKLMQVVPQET
Target sequence in this assay (P08195 102-630 partner, species assumed): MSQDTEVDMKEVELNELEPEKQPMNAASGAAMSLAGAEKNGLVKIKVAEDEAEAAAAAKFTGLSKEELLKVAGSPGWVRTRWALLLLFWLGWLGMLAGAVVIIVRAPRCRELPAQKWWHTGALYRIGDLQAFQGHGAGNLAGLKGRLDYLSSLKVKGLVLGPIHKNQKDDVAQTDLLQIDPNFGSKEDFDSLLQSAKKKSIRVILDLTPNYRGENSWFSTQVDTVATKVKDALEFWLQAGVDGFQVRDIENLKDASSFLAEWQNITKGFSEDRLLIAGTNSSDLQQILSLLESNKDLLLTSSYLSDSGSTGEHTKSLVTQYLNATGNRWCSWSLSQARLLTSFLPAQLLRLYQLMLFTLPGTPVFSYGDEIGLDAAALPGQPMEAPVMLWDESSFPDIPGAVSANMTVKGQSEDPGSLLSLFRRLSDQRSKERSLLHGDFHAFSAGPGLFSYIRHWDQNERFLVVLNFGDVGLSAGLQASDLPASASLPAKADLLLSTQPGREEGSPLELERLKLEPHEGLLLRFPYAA
Series [2] concerns the target T2, LAT1 transporter (Homo sapiens, UniProt Q01650).
T2 construct: KB cells endogenously expressing LAT1; endogenous in cells; host or cells: KB cells
Put plainly: KB cell competition assay with 14C-gabapentin. The class given is cell-based. The text has this: To increase the throughput of LAT1 compound screening, a mammalian cell assay was developed. Because LAT1 mRNA is expressed at detectable levels in many cancer cell lines, over 20 human cell lines were screened for LAT1 expression using quantitative PCR. Cell lines included A498, A549, ASPC, CALU, CAPAN, DLD, DU145, H69AR, HCT8, HEK, HELA, HEPG2, HL60, JAR, JUR, KB, LOVO, MCF7, PANC1, PC3, and SW48.
To determine whether a compound interacts with the LAT1 transporter, a competition-binding assay was developed. The assay measures how different concentrations of a test compound block the uptake of a radiolabeled substrates such as ^14C-L-dopa or ^14C-gabapentin. The half-maximal inhibitory concentration (IC50) for inhibition of transport of a substrate by a test compound is an indication of the affinity of the test compound for the LAT1 transporter. Competition binding studies were performed as follows. KB cells were plated in 96-well plates at 100,000 cells/well and incubated for 24 hours at 37° C. Radiolabeled ^14C-gabapentin (˜50,000 cpm/well) was added to each well in the presence and absence of various concentrations of test compound in duplicate or triplicate. Plates were incubated at room temperature for 20 min. Excess radiolabeled substrate was removed and cells were washed three times with a 96-well plate washer with cold assay buffer. Scintillation fluid was added to each well, the plates were sealed and counted in a 96-well plate-based scintillation counter. Data were graphed and analyzed using non-linear regression analysis with Prism Software (GraphPad, Inc., San Diego, Calif.).

For series [3], the target named is T3, hLAT1 (Homo sapiens, UniProt P08195+Q01650).
T3 construct: expressed in transfected cells
T3 sequence (Q01650+P08195 fused): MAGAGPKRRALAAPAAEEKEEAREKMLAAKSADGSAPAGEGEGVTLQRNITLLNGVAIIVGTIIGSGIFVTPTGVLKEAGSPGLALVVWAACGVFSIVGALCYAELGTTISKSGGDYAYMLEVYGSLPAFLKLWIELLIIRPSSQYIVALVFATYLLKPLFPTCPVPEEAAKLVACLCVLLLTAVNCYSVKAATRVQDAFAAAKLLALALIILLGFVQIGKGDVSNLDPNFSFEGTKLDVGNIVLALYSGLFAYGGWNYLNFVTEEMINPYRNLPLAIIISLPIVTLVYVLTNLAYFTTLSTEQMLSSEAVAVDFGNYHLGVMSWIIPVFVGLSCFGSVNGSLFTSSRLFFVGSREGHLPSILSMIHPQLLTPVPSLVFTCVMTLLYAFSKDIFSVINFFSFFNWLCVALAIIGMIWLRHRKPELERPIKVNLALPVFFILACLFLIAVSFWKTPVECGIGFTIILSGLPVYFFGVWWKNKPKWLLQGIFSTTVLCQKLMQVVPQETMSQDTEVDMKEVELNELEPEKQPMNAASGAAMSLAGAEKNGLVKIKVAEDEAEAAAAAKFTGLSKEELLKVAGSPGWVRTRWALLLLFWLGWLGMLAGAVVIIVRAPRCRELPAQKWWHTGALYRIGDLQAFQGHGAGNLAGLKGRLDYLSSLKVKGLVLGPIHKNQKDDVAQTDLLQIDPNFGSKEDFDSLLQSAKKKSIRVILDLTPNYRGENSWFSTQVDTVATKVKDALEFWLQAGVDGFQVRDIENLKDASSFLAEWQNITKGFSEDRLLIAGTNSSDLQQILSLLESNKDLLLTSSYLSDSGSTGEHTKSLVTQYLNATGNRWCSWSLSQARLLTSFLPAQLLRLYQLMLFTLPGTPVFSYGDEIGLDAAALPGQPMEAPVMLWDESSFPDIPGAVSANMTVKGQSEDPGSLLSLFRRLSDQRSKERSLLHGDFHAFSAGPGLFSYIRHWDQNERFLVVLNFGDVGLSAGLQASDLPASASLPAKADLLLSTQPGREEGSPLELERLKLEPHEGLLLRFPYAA
Put plainly: LAT1 competition uptake assay in HEK-TREx-LAT1-4F2hc cells with 3H-gabapentin. The class given is cell-based. On the procedure:
The plates were incubated at room temperature for 15 minutes.

Series [4] deals with T3, hLAT1. Put plainly: LAT1 direct uptake assay in HEK-TREx-LAT1-4F2hc cells (LC-MS-MS). The conditions noted are these: read-out: Km or IC50, Direct Uptake. The class given is cell-based. The procedure:
Four concentrations (bracketing the affinity as measured by competition assays) per compound were routinely tested.
Typically, four concentrations bracketing the IC50 were tested. The highest test concentration for each compound was made in an eppendorf tube and diluted into HBSS. The samples were robustly vortexed and centrifuged for 10 minutes at 13,200 rpm to spin down any precipitate. […] Three additional 2-fold dilutions were made in the subsequent rows (B-D or […]) in HBSS.
Alternatively, cells were washed manually with equivalent volumes using a multichannel pipettor.
The plate was incubated at room temperature for 10 minutes.
120 μl of the cell extract was removed from each well and transferred to a fresh 96-well v-bottom polypropylene plate. […] 10 μl of the 50 μM propranolol solution was added to each well of a fresh 96-well plate (a plate amenable for sampling in the LC-MS-MS).

Series [5] addresses T1, LAT1. The settings on record: Literature; LAT1-expressing oocytes; cited from earlier work.
Target sequence in this assay (Q01650 whole entry, species assumed): as the sequence (Q01650 whole entry, species assumed) above
Target sequence in this assay (P08195 102-630 partner, species assumed): as the sequence (P08195 102-630 partner, species assumed) above
Series [6] has as its target T1, LAT1. Put plainly: KB cell direct uptake assay (LC-MS-MS). The settings on record: read-out: Km or IC50, Direct Uptake; KB cells; 5 min.
The target of series [7] is T1, LAT1. Put plainly: Oocyte direct uptake assay (LC-MS-MS), oocytes expressing hLAT1 and 4F2hc. The class given is cell-based. Also on record: expressed in transfected cells; host or cells: Xenopus oocytes injected with cRNA. The text has this:
To assess transport function of a specific transporter protein, it can be desirable to clone the cDNA and express the protein in cells that have low endogenous transport activity. Human LAT1 was cloned by PCR, fully sequenced, and subcloned into plasmids that can be used for expression in mammalian cells or Xenopus oocytes. The co-subunit required for LAT1 function, 4F2HC (Genbank accession AB018010), was also cloned and sequenced. Unless otherwise noted, 4F2HC was also co-expressed in each heterologous system described in the example. […] For expression in Xenopus oocytes, in vitro LAT1 and 4F2HC cRNA was prepared and injected into defoliculated oocytes.
To measure directly the uptake of possible substrates, an oocyte uptake assay in which compounds are measured by mass spectroscopy was developed. To illustrate this approach, uptake assays of gabapentin and L-dopa were performed. Oocytes used in this experiment were injected with LAT1 cRNA and incubated at 16-18° C. until maximal transporter expression was reached. Oocytes from the same batch, which were not injected with cRNA, were used in the experiment to serve as a control. […] Following the incubation, the pools of oocytes were washed 4 times with 0.5% BSA ND96 buffer and separated into 2 oocyte subpools containing 4 oocytes each. Subpools were homogenized in 150 μl of ice cold 80% MeOH/H2O, and lysed manually with a P200 pipettor. Lysates were vortexed briefly before being spun in a 4° C. tabletop centrifuge at 13.2 krpm for 15 minutes. Approximately 110 μl of lysate was removed from the eppendorf tubes and placed in a 96-well plate. Lysates were analyzed for gabapentin and L-dopa by liquid chromatography-mass spectroscopy.
Samples were analyzed by LC-MS-MS as follows. […] Analyte fragmentation peaks were integrated using Analyst 1.2 quantitation software, and concentrations were calculated using a calibration curve of signals produced by known concentrations of the compound.
Target sequence in this assay (Q01650 whole entry): as the sequence (Q01650 whole entry, species assumed) above
Target sequence in this assay (as listed by the source partner): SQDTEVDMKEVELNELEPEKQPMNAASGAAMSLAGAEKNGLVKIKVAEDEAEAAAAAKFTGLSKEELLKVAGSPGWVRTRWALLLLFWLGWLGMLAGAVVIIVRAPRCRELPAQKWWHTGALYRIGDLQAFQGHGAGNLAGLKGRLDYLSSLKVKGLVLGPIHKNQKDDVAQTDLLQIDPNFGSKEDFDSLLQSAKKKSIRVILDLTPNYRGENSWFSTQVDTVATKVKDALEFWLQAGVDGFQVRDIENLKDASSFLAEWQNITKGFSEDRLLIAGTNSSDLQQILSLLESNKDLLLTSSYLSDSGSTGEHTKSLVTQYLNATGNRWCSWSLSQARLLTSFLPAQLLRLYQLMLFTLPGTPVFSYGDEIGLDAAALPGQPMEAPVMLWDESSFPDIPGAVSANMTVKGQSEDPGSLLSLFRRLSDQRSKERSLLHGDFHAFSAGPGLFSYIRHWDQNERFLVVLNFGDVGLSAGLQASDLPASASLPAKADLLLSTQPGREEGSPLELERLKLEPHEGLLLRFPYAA

In series [8] the target is PgP (Homo sapiens, UniProt P08183). Put plainly: Cellular transwell monolayer efflux assay, MDCK cells with TREx-PgP.
Chain of PgP (P08183 whole entry): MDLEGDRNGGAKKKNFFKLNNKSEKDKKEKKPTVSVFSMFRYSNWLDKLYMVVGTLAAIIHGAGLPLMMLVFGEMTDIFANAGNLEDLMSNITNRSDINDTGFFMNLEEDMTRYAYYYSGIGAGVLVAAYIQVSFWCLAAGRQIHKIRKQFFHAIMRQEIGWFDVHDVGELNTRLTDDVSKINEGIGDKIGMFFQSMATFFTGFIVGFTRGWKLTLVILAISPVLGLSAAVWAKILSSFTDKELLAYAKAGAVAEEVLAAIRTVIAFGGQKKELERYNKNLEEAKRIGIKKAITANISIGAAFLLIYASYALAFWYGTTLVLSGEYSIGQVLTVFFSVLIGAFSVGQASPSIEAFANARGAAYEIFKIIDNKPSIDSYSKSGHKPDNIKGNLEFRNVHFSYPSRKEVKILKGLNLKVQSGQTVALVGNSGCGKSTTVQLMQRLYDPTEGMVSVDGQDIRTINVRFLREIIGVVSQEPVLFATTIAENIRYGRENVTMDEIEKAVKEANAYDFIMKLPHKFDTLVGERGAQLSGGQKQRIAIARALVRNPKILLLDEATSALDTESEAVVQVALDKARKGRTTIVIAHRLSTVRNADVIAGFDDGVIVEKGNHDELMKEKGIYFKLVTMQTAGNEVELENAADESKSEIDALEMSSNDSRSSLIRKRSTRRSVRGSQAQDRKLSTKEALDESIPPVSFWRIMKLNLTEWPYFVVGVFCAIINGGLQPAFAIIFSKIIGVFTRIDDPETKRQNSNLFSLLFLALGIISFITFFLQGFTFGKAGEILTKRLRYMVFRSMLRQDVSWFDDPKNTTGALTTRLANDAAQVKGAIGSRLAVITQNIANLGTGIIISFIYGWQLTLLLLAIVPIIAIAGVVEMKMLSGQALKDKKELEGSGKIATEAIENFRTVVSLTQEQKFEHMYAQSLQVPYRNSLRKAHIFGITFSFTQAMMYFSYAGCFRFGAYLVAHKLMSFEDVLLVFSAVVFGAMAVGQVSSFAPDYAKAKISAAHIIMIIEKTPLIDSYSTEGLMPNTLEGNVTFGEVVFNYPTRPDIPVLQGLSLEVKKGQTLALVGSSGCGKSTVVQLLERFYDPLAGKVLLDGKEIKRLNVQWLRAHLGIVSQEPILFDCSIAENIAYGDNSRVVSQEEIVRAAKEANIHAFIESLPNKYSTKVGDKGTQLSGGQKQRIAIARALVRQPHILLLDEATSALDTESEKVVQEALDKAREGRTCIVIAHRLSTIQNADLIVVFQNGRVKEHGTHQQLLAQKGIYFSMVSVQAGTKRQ
Series [9] concerns the target T1, LAT1. Put plainly: Radiolabel uptake into Xenopus oocytes expressing LAT1 and 4F2HC. The class given is cell-based. Also on record: expressed in transfected cells; host or cells: Xenopus oocytes injected with cRNA. The settings on record: FIG. 2.
Where [10] appears, read: KB cells, read-out: Km or IC50, Competition (14C-GP).
Setting [11] is: own data, read-out: Km or IC50, Direct Uptake.
The mark [12] stands for this setting: 2.5 nM 3H-vinblastine, 250 μM verapamil.

pIC50: −log10 of the molar value. Where two headings read alike, the source gives them in different places.

T2 sequence (Q01650 whole entry): as the sequence (Q01650 whole entry, species assumed) above
T2 sequence (P08195 102-630 partner): as the sequence (P08195 102-630 partner, species assumed) above

For the compound `CC(C)C[C@H](N)C(=O)O` [Leucine], in series [1], the “Reported Affinity for LAT1” value was 0.22 mM.

In the case of `NC1(C(=O)O)CC2CCC1C2` (stereo not shown) [Bicyclohexane amino acid], the “Reported Affinity for LAT1” value in series [1] is reported as 0.18 mM.

Consider `NCC(CC(=O)O)c1ccc(Cl)cc1` (stereo not shown) [Baclofen], for which, in [1], the “Reported Affinity for LAT1” value is given as 0.25 mM.

As to `N[C@@H](Cc1ccccc1)C(=O)O` [Phenylalanine], the pIC50 in series [2] (setting [10]) is 4.00; in [3] (HEK-LAT1 cells, read-out: Km or IC50, Competition (3H-GP)) it was 3.80. Besides, the Km in series [4] turned out to be 140 µM; in series [6], 14.5 µM; in [7] (setting [11]) it was 25 µM. The “Reported Affinity for LAT1” value in series [1] is on record as 0.025 mM. Moreover, the “Km or IC50, Radiolabel Uptake or Competition” value in [5] is 12.5 to 14.2 µM.

Turning to `N[C@@H](Cc1c[nH]c2ccccc12)C(=O)O` [Tryptophan], in [1], the “Reported Affinity for LAT1” value is reported as 0.35 mM.

Take `CC[C@]1(O)C[C@@H]2CN(CCc3c([nH]c4ccccc34)[C@@](C(=O)OC)(c3cc4c(cc3OC)N(C)[C@H]3[C@@](O)(C(=O)OC)[C@H](OC(C)=O)[C@]5(CC)C=CCN6CC[C@]43[C@@H]65)C2)C1` [vinblastine]: in series [8], the PgP substrate status result is given as “is a substrate of PgP”. Further, in [8] (setting [12]), the “Apical to basolateral transport in the presence of verapamil” value is “strongly increased” and the “Basolateral to apical transport in the presence of verapamil” value is given as “strongly decreased”.

For the compound `CSCC[C@H](N)C(=O)O` [Methionine], in [1], the “Reported Affinity for LAT1” value is reported as 0.25 mM.

Take `N[C@@H](Cc1ccc(O)c(O)c1)C(=O)O` [L-dopa]: the pIC50 in series [2] (setting [10]) is 3.72. Also, in series [7] (setting [11]), the Km is 66 µM. The “3H-L-dopa uptake into oocytes expressing LAT1 and 4F2HC versus noninjected controls” value in series [9] is listed as “higher levels”.

Take `NCC1(CC(=O)O)CCCCC1` [Gabapentin]: the pIC50 is 3.68 in series [2] and 3.40 in [3]. Besides, the Km in [4] came out at 500 µM; in series [6], 160 µM; in series [7] (read-out: Km or IC50, Direct Uptake, own data) it was 140 µM. Moreover, in series [1], the “Reported Affinity for LAT1” value is 0.15 mM. Further, the “Km or IC50, Radiolabel Uptake or Competition” value in [5] is 340 µM.

These data come from patent US7462459B2, “LAT1 transporters expressed in blood brain barrier cells” (XenoPort, Inc., priority 2004, dated 2008).
